In patent US6602710B1, “Screening method for SREBP pathway-specific inhibitors” (Chugai Seiyaku Kabushiki Kaisha, priority 1998, dated 2003):

What was measured:
[1] = tested on: CHO-K1 cells; assay: amphotericin B cytotoxicity assay (cholesterol synthesis activity) in CHO-K1 cells; format: cell-based, Chinese hamster; conditions: 0.1 μg/ml 25-hydroxycholesterol, 24 hours, FIG. 4
[2] = tested on: DM7 cells; assay: amphotericin B cytotoxicity assay in DM7 cells; format: cell-based, Chinese hamster; conditions: compared with 25RA, amphotericin B in PBS, 4 hours, FIG. 3
[3] = tested on: 25RA cells; conditions: amphotericin B at various concentrations in PBS, 4 hours, FIG. 3
[4] = tested on: LDL receptor activity of CHO-K1 cells; assay: 125I-LDL binding assay (LDL receptor activity) in CHO-K1 cells; format: cell-based, Chinese hamster; conditions: simvastatin + (1 μM), sterols −, 24 hours
Method: (§1) In order to measure LDL receptor activity, the examples of the present invention use the ^125I-LDL binding assay. However, other suitable means may include incorporation of LDL labeled with a fluorescent lipid DiI into cells or ELISA-mediated measurement of the amount of LDL receptors expressed on the surface of cell membranes, and the screening system of the present invention is not specifically limited to those shown herein.
(§2) On day 0, cells were seeded on 6-well plates at a density of 3×10^4 cells/well, and incubated in F-F12. […] On day 4, the cells were incubated at 4° C. for 2 hours, and then washed twice with PBS. Then, incubation was continued at 4° C. in L-F12 (containing 10 mM Hepes-NaOH, pH 7.4) containing 10 μg/ml ^125I-LDL or 10 μg/ml ^125I-LDL and 400 μg/ml LDL. After 5 hours, the cells were washed with buffer B (150 mM NaCl, 50 mM Tris-HCl, 2 mg/ml BSA, pH 7.4), then buffer C (150 mM NaCl, 50 mM Tris-HCl, pH 7.4) each three times, and incubated with 1 ml of buffer D (50 mM NaCl, 10 mM Hepes-NaOH, 4 mg/ml dextran sulfate, pH 7.4) at 4° C. After one hour, buffer D was recovered and assayed for its radioactivity. The protein level in cells remaining in wells was measured by the BCA method to calculate ^125I-LDL binding per mg of […].

[5] = tested on: LDL receptor activity of 25RA cells; assay: 125I-LDL binding assay (LDL receptor activity) in 25RA cells; format: cell-based, Chinese hamster; conditions: simvastatin + (1 μM), sterols −, 24 hours
Method: as §1, §2

`C[C@H](CCCC(C)(C)O)[C@H]1CC[C@H]2[C@@H]3CC=C4C[C@@H](O)CC[C@]4(C)[C@H]3CC[C@]12C` [25-hydroxycholesterol] was tested, and the “cholesterol synthesis activity (amphotericin B cytotoxicity assay)” value [1] was “inhibited cholesterol synthesis activity”.

In the case of `C[C@@H]1[C@H](O)[C@@H](C)/C=C/C=C/C=C/C=C/C=C/C=C/C=C/[C@H](O[C@@H]2O[C@H](C)[C@@H](O)[C@H](N)[C@@H]2O)C[C@@H]2O[C@](O)(C[C@@H](O)C[C@@H](O)[C@H](O)CC[C@@H](O)C[C@@H](O)CC(=O)O[C@H]1C)C[C@H](O)[C@H]2C(=O)O` [amphotericin B], the “survival of cells treated with amphotericin B” value [2] is reported as “remarkable resistance” and the “survival of cells treated with amphotericin B” value [3] is reported as “decreased depending on the concentration”.

For `CCC(C)(C)C(=O)O[C@H]1C[C@@H](C)C=C2C=C[C@H](C)[C@H](CC[C@@H]3C[C@@H](O)CC(=O)O3)[C@H]21` [simvastatin], the “Cell surface binding of [125I]LDL” value [4] was 30.1 ng/mg protein and the “Cell surface binding of [125I]LDL” value [5] was 20.9 ng/mg protein.
